What was measured:
[1] = test system: HCT-116; assay: Growth inhibition of human HCT116 cells assessed as cell growth at 5X10'-5 M after 48 hrs by sulforhodamine B assay; type: functional; details: HCT-116, 48 h, read-out: Activity
[2] = test system: TK-10; assay: Growth inhibition of human TK10 cells after 48 hrs by sulforhodamine B assay; type: functional; details: TK-10, 48 h; for CC50: read-out: LC50 (the source's name)
[3] = test system: HL-60(TB); assay: Growth inhibition of human HL-60(TB) cells assessed as cell growth at 5X10'-9 M after 48 hrs by sulforhodamine B assay; type: functional; details: HL-60, 48 h, read-out: Activity
[4] = Growth inhibition of human NCI-ADR-RES cells after 48 hrs by sulforhodamine B assay; type: functional; details: for CC50: read-out: LC50 (the source's name)
[5] = test system: NCI-H226; assay: Growth inhibition of human NCI-H226 cells assessed as cell growth at 10 uM after 48 hrs by sulforhodamine B assay; type: functional; details: NCI-H226, 48 h, read-out: Activity
[6] = test system: M14; assay: Growth inhibition of human M14 cells assessed as cell growth at 5X10'-5 M after 48 hrs by sulforhodamine B assay; type: functional; details: M14, 48 h, read-out: Activity
[7] = test system: HOP-62; assay: Growth inhibition of human HOP62 cells assessed as cell growth at 5X10'-7 M after 48 hrs by sulforhodamine B assay; type: functional; details: HOP-62, 48 h, read-out: Activity
[8] = test system: U-251; assay: Growth inhibition of human U251 cells assessed as cell growth at 5X10'-5 M after 48 hrs by sulforhodamine B assay; type: functional; details: U-251, 48 h, read-out: Activity
[9] = test system: SF-268; assay: Growth inhibition of human SF268 cells assessed as cell growth at 5X10'-8 M after 48 hrs by sulforhodamine B assay; type: functional; details: SF-268, 48 h, read-out: Activity
[10] = test system: SNB-19; assay: Growth inhibition of human SNB19 cells assessed as cell growth at 5X10'-6 M after 48 hrs by sulforhodamine B assay; type: functional; details: SNB-19, 48 h, read-out: Activity
[11] = test system: SF-539; assay: Growth inhibition of human SF539 cells assessed as cell growth at 5X10'-6 M after 48 hrs by sulforhodamine B assay; type: functional; details: SF-539, 48 h, read-out: Activity
[12] = test system: COLO 205; assay: Growth inhibition of human COLO205 cells assessed as cell growth at 5X10'-8 M after 48 hrs by sulforhodamine B assay; type: functional; details: COLO 205, 48 h, read-out: Activity
[13] = test system: CCRF-CEM; assay: Growth inhibition of human CCRF-CEM cells assessed as cell growth at 10 uM after 48 hrs by sulforhodamine B assay; type: functional; details: read-out: Activity
[14] = test system: OVCAR-3; assay: Growth inhibition of human OVCAR3 cells after 48 hrs by sulforhodamine B assay; type: functional, cell-based; details: OVCAR-3, 48 h; for CC50: read-out: LC50 (the source's name)
[15] = test system: NCI-H460; assay: Growth inhibition of human NCI-H460 cells assessed as cell growth at 5X10'-7 M after 48 hrs by sulforhodamine B assay; type: functional; details: NCI-H460, 48 h, read-out: Activity
[16] = test system: HL-60(TB); assay: Growth inhibition of human HL-60(TB) cells after 48 hrs by sulforhodamine B assay; type: functional; details: HL-60, 48 h; for CC50: read-out: LC50 (the source's name)
[17] = test system: RPMI-8226; assay: Growth inhibition of human RPMI8226 cells assessed as cell growth at 5X10'-8 M after 48 hrs by sulforhodamine B assay; type: functional; details: RPMI-8226, 48 h, read-out: Activity
[18] = test system: SF-295; assay: Growth inhibition of human SF295 cells assessed as cell growth at 5X10'-5 M after 48 hrs by sulforhodamine B assay; type: functional; details: SF-295, 48 h, read-out: Activity
[19] = test system: SK-MEL-5; assay: Growth inhibition of human SK-MEL-5 cells assessed as cell growth at 5X10'-8 M after 48 hrs by sulforhodamine B assay; type: functional; details: SK-MEL-5, 48 h, read-out: Activity
[20] = test system: SF-539; assay: Growth inhibition of human SF539 cells assessed as cell growth at 5X10'-8 M after 48 hrs by sulforhodamine B assay; type: functional; details: SF-539, 48 h, read-out: Activity
[21] = test system: CAKI-1; assay: Growth inhibition of human CAKI-1 cells assessed as cell growth at 10 uM after 48 hrs by sulforhodamine B assay; type: functional; details: CAKI-1, 48 h, read-out: Activity
[22] = Growth inhibition of human HCC2998 cells assessed as cell growth at 5X10'-7 M after 48 hrs by sulforhodamine B assay; type: functional; details: HCC 2998, 48 h, read-out: Activity
[23] = test system: MCF7; assay: Growth inhibition of human MCF7 cells assessed as cell growth at 5X10'-6 M after 48 hrs by sulforhodamine B assay; type: functional; details: MCF7, 48 h, read-out: Activity
[24] = test system: TK-10; assay: Growth inhibition of human TK10 cells assessed as cell growth at 5X10'-9 M after 48 hrs by sulforhodamine B assay; type: functional; details: TK-10, 48 h, read-out: Activity
[25] = test system: MOLT-4; assay: Growth inhibition of human MOLT4 cells after 48 hrs by sulforhodamine B assay; type: functional; details: MOLT-4, 48 h; for CC50: read-out: LC50 (the source's name)
[26] = test system: RXF 393; assay: Growth inhibition of human RXF393 cells assessed as cell growth at 5X10'-9 M after 48 hrs by sulforhodamine B assay; type: functional; details: RXF 393, 48 h, read-out: Activity
[27] = test system: SF-268; assay: Growth inhibition of human SF268 cells assessed as cell growth at 5X10'-5 M after 48 hrs by sulforhodamine B assay; type: functional; details: SF-268, 48 h, read-out: Activity
[28] = test system: OVCAR-4; assay: Growth inhibition of human OVCAR4 cells assessed as cell growth at 5X10'-5 M after 48 hrs by sulforhodamine B assay; type: functional; details: OVCAR-4, 48 h, read-out: Activity
[29] = test system: SF-295; assay: Growth inhibition of human SF295 cells assessed as cell growth at 5X10'-9 M after 48 hrs by sulforhodamine B assay; type: functional; details: SF-295, 48 h, read-out: Activity
[30] = test system: BT-549; assay: Growth inhibition of human BT549 cells assessed as cell growth at 5X10'-9 M after 48 hrs by sulforhodamine B assay; type: functional; details: BT-549, 48 h, read-out: Activity
[31] = test system: UACC-257; assay: Growth inhibition of human UACC257 cells assessed as cell growth at 10 uM after 48 hrs by sulforhodamine B assay; type: functional; details: UACC-257, 48 h, read-out: Activity
[32] = test system: RPMI-8226; assay: Growth inhibition of human RPMI8226 cells after 48 hrs by sulforhodamine B assay; type: functional, cell-based; details: RPMI-8226, 48 h; for CC50: read-out: LC50 (the source's name)
[33] = test system: HL-60(TB); assay: Growth inhibition of human HL-60(TB) cells assessed as cell growth at 10 uM after 48 hrs by sulforhodamine B assay; type: functional; details: HL-60, 48 h, read-out: Activity
[34] = test system: RXF 393; assay: Growth inhibition of human RXF393 cells assessed as cell growth at 10 uM after 48 hrs by sulforhodamine B assay; type: functional; details: RXF 393, 48 h, read-out: Activity
[35] = test system: SK-MEL-5; assay: Growth inhibition of human SK-MEL-5 cells after 48 hrs by sulforhodamine B assay; type: functional; details: SK-MEL-5, 48 h

In the case of `O=C(Nc1cccc(-n2cc(-c3ccncc3)c(-c3ccc(Cl)c(O)c3)n2)c1)c1ccc(N2CCOCC2)c(C(F)(F)F)c1`, the growth at 50 µM [1] is reported as 10%, the GI50 [2] is reported as 21.3 µM and the TGI [2] is reported as greater than 50 µM. It also gave a CC50 [2] greater than 50 µM, a growth at 0.005 µM [3] of 98% and a GI50 [4] of 2.86 µM. For the same compound, the TGI [4] was greater than 50 µM, the CC50 [4] was greater than 50 µM and the growth at 10 µM [5] was 107%. The growth at 50 µM [6] was -50%, the growth at 0.5 µM [7] was 117% and the growth at 50 µM [8] was -7%. It also gave a growth at 0.05 µM [9] of 93%, a growth at 5 µM [10] of 45% and a growth at 5 µM [11] of 21%. It also gave a growth at 0.05 µM [12] of 102%, a growth at 10 µM [13] of 27.9% and a GI50 [14] of 4.81 µM. The IC50 [14] was 4.81 µM, the TGI [14] was greater than 50 µM and the CC50 [14] was greater than 50 µM. For the same compound, the growth at 0.5 µM [15] was 98%, the GI50 [16] was 3.81 µM and the TGI [16] was greater than 50 µM. It also gave a CC50 [16] greater than 50 µM, a growth at 0.05 µM [17] of 99% and a growth at 50 µM [18] of -59%. For the same compound, the growth at 0.05 µM [19] was 93%, the growth at 0.05 µM [20] was 93% and the growth at 10 µM [21] was 81.2%. It also gave a growth at 0.5 µM [22] of 108%, a growth at 5 µM [23] of 41% and a growth at 0.005 µM [24] of 94%. The GI50 [25] was 2.37 µM, the TGI [25] was 36.7 µM and the CC50 [25] was greater than 50 µM. It also gave a growth at 0.005 µM [26] of 105%, a growth at 50 µM [27] of 30% and a growth at 50 µM [28] of 46%. For the same compound, the growth at 0.005 µM [29] was 93%, the growth at 0.005 µM [30] was 100% and the growth at 10 µM [31] was 38.9%. The GI50 [32] was 1.4 µM, the IC50 [32] was 1.4 µM and the TGI [32] was 12.5 µM. The CC50 [32] was greater than 50 µM, the growth at 10 µM [33] was 51.6% and the growth at 10 µM [34] was -26%. It also gave a GI50 [35] of 2.47 µM, an LC50 (concentration killing 50% of cells) [35] of 31.8 µM and a TGI [35] of 10.2 µM.
In the case of `O=C(Nc1cccc(-n2cc(-c3ccncc3)c(-c3ccc(Cl)c(O)c3)n2)c1)Nc1cc(C(F)(F)F)cc(C(F)(F)F)c1`, the growth at 50 µM [1] is reported as -96%, the GI50 [2] is reported as 0.959 µM and the TGI [2] is reported as 3.58 µM. It also gave a CC50 [2] of 14.2 µM, a growth at 0.005 µM [3] of 115% and a GI50 [4] of 1.07 µM. For the same compound, the TGI [4] was 5.25 µM, the CC50 [4] was 38.7 µM and the growth at 10 µM [5] was 1.17%. For the same compound, the growth at 50 µM [6] was -86%, the growth at 0.5 µM [7] was 96% and the growth at 50 µM [8] was -91%. For the same compound, the growth at 0.05 µM [9] was 103%, the growth at 5 µM [10] was 16% and the growth at 5 µM [11] was -91%. For the same compound, the growth at 0.05 µM [12] was 103%, the growth at 10 µM [13] was -16% and the GI50 [14] was 0.395 µM. It also gave an IC50 [14] of 0.4 µM, a TGI [14] of 1.2 µM and a CC50 [14] of 3.31 µM. The growth at 0.5 µM [15] was 45%, the GI50 [16] was 1.5 µM and the TGI [16] was 13.5 µM. It also gave a CC50 [16] greater than 50 µM, a growth at 0.05 µM [17] of 95% and a growth at 50 µM [18] of -76%. It also gave a growth at 0.05 µM [19] of 92%, a growth at 0.05 µM [20] of 94% and a growth at 10 µM [21] of 8.94%. The growth at 0.5 µM [22] was 92%, the growth at 5 µM [23] was 4% and the growth at 0.005 µM [24] was 107%. The GI50 [25] was 1.15 µM, the TGI [25] was 4.36 µM and the CC50 [25] was greater than 50 µM. For the same compound, the growth at 0.005 µM [26] was 95%, the growth at 50 µM [27] was -65% and the growth at 50 µM [28] was -74%. For the same compound, the growth at 0.005 µM [29] was 92%, the growth at 0.005 µM [30] was 99% and the growth at 10 µM [31] was -50.9%. For the same compound, the GI50 [32] was 0.477 µM, the IC50 [32] was 0.48 µM and the TGI [32] was greater than 50 µM. The CC50 [32] was greater than 50 µM, the growth at 10 µM [33] was -18.3% and the growth at 10 µM [34] was -66.7%. For the same compound, the GI50 [35] was 0.6 µM, the LC50 (concentration killing 50% of cells) [35] was 2.62 µM and the TGI [35] was 1.25 µM.

Reference: ChEMBL document CHEMBL2440076, “New triarylpyrazoles as broad-spectrum anticancer agents: design, synthesis, and biological evaluation” (Eur J Med Chem, 2013)
